The record followed here is patent EP2440195B1, “USE OF ALKYLGLYCEROLS FOR PREPARING DRUGS” (Université de Rennes I, priority 2009, dated 2010).

The subject of test [1] is cellules du carcinome pulmonaire de Lewis. Kind of test: Survival and tumour growth in mice grafted with Lewis lung carcinoma, five diets (alkylglycerol 18:1 and/or DFMO, normal or polyamine-deficient diet). The test is classed as in vivo, souris C57BL/6. The source says:
Cette figure représente les variations de volume de tumeurs (en mm^3, indiqués en ordonnées) en fonction du nombre de jours (indiqués en abscisses) écoulés après la greffe de ladite tumeur chez des souris C57BL/6. Les souris sont greffées avec une tumeur solide de cellules du carcinome pulmonaire de Lewis.
Cette figure représente le pourcentage de survie (en ordonnées) de souris C57BL/6, en fonction du nombre de jours (en abscisses) écoulés après la greffe d'une tumeur solide de cellules du carcinome pulmonaire de Lewis. La représentation utilisée est sous forme de graphique de Kaplan-Meier, le test statistique Log-Rank est utilisé pour la comparaison de la survie (fiabilité p < 0,0001).
(§1) Des souris femelles C57BL/6, âgées de 8 semaines et pesant 20g (élevage Janvier, Le Genest St Isle, France) sont acclimatées 1 semaine avant le début de l'étude. La manipulation des animaux est réalisée en accord avec les directives éthiques pour l'expérimentation et selon les recommandations de l'Association Européenne de Recherche Biomédicale.
(§2) Les cellules de carcinome pulmonaire de Lewis (3LL) ont été obtenues auprès de l'ECACC (European collection of cell cultures) et greffées par injection intramusculaire dans les pattes postérieures de souris femelles C57BL/6 selon la méthode décrite précédemment (Hergueux J. et al., Exp. Cell Biol., 1983, 51(4), 181-191) pour produire des cellules tumorales. Après 20 jours, les cellules tumorales sont collectées et dispersées dans du PBS, comptées et diluées pour atteindre 1 ×10^6 cellules / 100 µL, avant d'être greffées dans les souris.
Le modèle animal (souris C57BL/5) et le modèle tumoral (carcinome de Lewis) sont décrits précédemment. Les souris sont greffées avec […] tumorales, par injection intramusculaire. […]

Test [2] shares this test system. The experiment in a line: Survival study by diet (PDD or PCD) and alkylglycerol 18:1 or olive oil, Lewis lung carcinoma graft. The note with it: for différence dans la valeur de survie médiane: Log-Rank; for valeur médiane de survie: 25 mice per group. The test is classed as in vivo, souris C57BL/6.
Excerpt: Cette figure représente le pourcentage de survie (en ordonnées) de souris, en fonction du nombre de jours (en abscisses) écoulés après la greffe d'une tumeur solide de cellules du carcinome pulmonaire de Lewis. Les souris sont réparties en 2 groupes de 25 individus. Les deux groupes sont alimentés avec des régimes alimentaires différents. Les valeurs médianes de survie sont observées. La représentation utilisée est sous forme de graphique de Kaplan-Meier, le test statistique Log-Rank est utilisé pour la comparaison de la survie.
as §1, §2
Au premier jour de l'expérience, 0,1 ×10^6 cellules tumorales sont greffées par injection intramusculaire, à chaque souris. Les souris greffées sont réparties aléatoirement dans les cages par groupe de 25 individus.
Quatre groupes sont constitués, chacun comprenant 25 souris greffées avec des cellules tumorales. Les souris sont réparties dans 8 cages avec 12 à 13 individus par cage. Chaque groupe de souris comprend les individus de deux cages. Chaque groupe de souris est alimenté avec un régime alimentaire différent. La consommation d'aliments est suivie deux fois par semaine, et le nombre de décès deux fois par jour.
Les quatre types de régime alimentaire sont : • régime 1, aliment synthétique appauvri en polyamines (PDD) et enrichi en huile d'olive (20 g / kg d'aliment), • régime 2, aliment synthétique appauvri en polyamines (PDD) et enrichi en alkylglycérol 18 :1 (25 mg par jour et par souris), • régime 3, aliment synthétique contenant des polyamines (PCD), enrichi en huile d'olive (20 g / kg d'aliment), • régime 4, aliment synthétique contenant des polyamines (PCD), enrichi en alkylglycérol 18 :1 (25 mg par jour et par souris).

The test system of test [3] is carcinome de Lewis. The experiment in a line: Antitumour agent Example 2: chemotherapy with PCD/PDD diets, DFMO and alkylglycerol C18:1, Lewis carcinoma graft. Type of test: in vivo, souris C57BL/5. As to the method: Le modèle animal (souris C57BL/5) et le modèle tumoral (carcinome de Lewis) sont décrits précédemment. Les souris sont greffées avec 0,1 ×10^6 cellules tumorales, par injection intramusculaire.
Quatres ensembles d'animaux sont constitués : A, B, C et D. • L'ensemble A est traité avec une monochimiothérapie a forte dose (cyclophosphamide, 90 mg / kg / semaine). • L'ensemble B est traité avec une monochimiothérapie a faible dose (cyclophosphamide, 20 mg / kg / semaine). • L'ensemble C est traité avec une polychimiothérapie combinant trois agents antitumoraux (methotrexate, cyclophosphamide, vindesine). Le premier jour de l'expérience l'ensemble C est traité avec le methotrexate (1,7 mg / kg). Le second jour de l'expérience l'ensemble C est traité avec le cyclophosphamide (20 mg / kg). Le troisième jour de l'expérience l'ensemble C est traité avec la vindesine (0,25 mg/kg). • L'ensemble D est traité avec une solution saline (NaCl, 0,14 M), il s'agit d'un groupe témoin.
Pour chacun des 4 ensembles, les souris sont réparties en 8 groupes (soit 32 groupes au total) en fonction de leurs alimentations : • Le groupe 1a : aliment synthétique contenant des polyamines (PCD), • le groupe 1b : aliment synthétique contenant des polyamines (PCD), et avec une eau contenant du DFMO, • le groupe 1c : aliment synthétique contenant des polyamines (PCD), enrichi en alkylglycérol, • le groupe 1d : aliment synthétique contenant des polyamines (PCD), enrichi en alkylglycérol, et avec une eau contenant du DFMO, • le groupe 2a : aliment synthétique appauvri en polyamines (PDD), • le groupe 2b : aliment synthétique appauvri en polyamines (PDD), et avec une eau contenant du DFMO, • le groupe 2c : aliment synthétique appauvri en polyamines (PDD), enrichi en alkylglycérol, • le groupe 2d : aliment synthétique appauvri en polyamines (PDD), enrichi en alkylglycérol, et avec une eau contenant du DFMO,
L'alkylglycérol est le C 18 :1 (alcool sélachylique) et est mélangé à l'alimentation des souris (25 mg par jour et par souris). Le DFMO est mélangé à l'eau de boisson des souris (30 g/L). […]

Test [4] deals with néo vascularisation induite par le Matrigel. Kind of test: Matrigel plug angiogenesis test (haemoglobin content of the gel, VEGF-induced). Type of test: in vivo, souris C57BL/5. The note with it: PDD. As to the method: Cette figure représente le pourcentage de concentration en hémoglobine dans du Matrigel (BD Biosciences) (en ordonnées), 10 jours après injection dudit Matrigel (500µL) à des souris.
La colonne du centre représente les souris témoins ayant été traitées avec du VEGF. Ces souris ont été greffées avec du Matrigel contenant du VEGF (50 ng/mL). Le pourcentage de concentration en hémoglobine est fixé arbitrairement à 100% et sert de référence pour quantifier les pourcentages des deux autres groupes.
La néo vascularisation induite par le Matrigel est dosée suivant une modification de la méthode de Kimura et al. (Cancer Sci. 2004, 95(9), 758-764). En résumé, tous les animaux ont été traités par injection sous-cutanée de Matrigel (500µL) contenant 32 unités/mL d'héparine et éventuellement 50 ng/mL de VEGF (Vascular Endothelial Growth Factor).
Le modèle animal (souris C57BL/5) et le Matrigel sont décrits précédemment.
Le Matrigel est injecté en sous-cutané (500 µL par injection) à trois groupes de 6 souris : • Groupe 1 : Matrigel sans VEGF, régime alimentaire appauvri en polyamines (PDD). • Groupe 2 : Matrigel avec VEGF, régime alimentaire appauvri en polyamines (PDD). • Groupe 3 : Matrigel avec VEGF, régime alimentaire appauvri en polyamines (PDD), enrichi en alkylglycérol 18 :1 (25 mg par jour et par souris)
Dix jours après injection les souris sont euthanasiées et le Matrigel est prélevé, pesé, photographié. Le Matrigel est ensuite dissocié mécaniquement dans du PBS, homogénéisé puis est mis dans une solution de Drabkin's pour le dosage de l'hémoglobine. Les solutions sont déposées dans des puits d'une plaque 96 puits contenant une solution de Drabkin's et lecture dans un lecteur de plaque à 540 nm.
La concentration en hémoglobine observe dans le Matrigel du groupe 2 est fixé arbitrairement à 100% et sert de référence lors des comparaisons avec les résultats obtenus avec les groupes 1 et 3 (Figure 8).

The mark [5] stands for this setting: régime appauvri en polyamines (PDD), alkylglycérol 18 :1 25 mg / souris / jour and/or DFMO 30 g / L in drinking water, DFMO alone given with huile d'olive.
Setting [6] is: cyclophosphamide à faible dose (20 mg / kg / semaine), animaux PDD + DFMO (30 g/L).

With `NCCCC(N)(C(=O)O)C(F)F` (racemic) [DFMO, D,L-2-(difluorométhyl)ornithine, reference compound], in test [1] (setting [5]), the “valeur médiane de survie” value is given as 35 jours.

Regarding `CCCCCCCC/C=C\CCCCCCCCOCC(O)CO` (stereo not shown) [alkylglycérol 18 :1, alcool sélachylique], the “valeur médiane de survie” value in test [1] (setting [5]) was found to be 30 jours; in test [1] (régime contenant un taux normal de polyamines (PCD), alkylglycérol 18 :1 25 mg / souris / jour, days after tumour graft) it was 31 jours; in test [2] (régime appauvri en polyamines (PDD, 10 µg / kg d'aliment), alkylglycérol 18 :1 25 mg / souris / jour or huile d'olive) it was 26 jours; in test [2] (régime contenant des polyamines (PCD, 128 mg / kg d'aliment), alkylglycérol 18 :1 25 mg / souris / jour) it was 26 jours. Also, the “différence dans la valeur de survie médiane” value in test [2] (C18 :1 (PCD, régime 4) vs huile d'olive (PCD, régime 3), Figure 4) is “Aucune différence significative”; in test [2] (C18 :1 (PDD, régime 2) vs C18 :1 (PCD, régime 4), Figure 7) it was “Aucune différence significative”; in test [2] (C18 :1 (PDD, régime 2) vs huile d'olive (PCD, régime 3), Figure 5), “Aucune différence significative”; in test [2] (C18 :1 (PDD, régime 2) vs huile d'olive (PDD, régime 1), Figure 3), “Aucune différence significative”. In test [2] (overall conclusion of the four-diet survival study), the “influence sur la durée médiane de survie” value is reported as “n'a pas d'influence significative”. In test [3] (C18 :1 25 mg par jour et par souris added to chemotherapy + PDD + DFMO), the “effect of C18 :1 intake on the benefit of chemotherapy” value is on record as “amplifie les effets bénéfiques de la chimiothérapie”. In addition, in test [4] (Matrigel with VEGF), the “effet anti angiogénique” value is “observé”. The “réduction de l'angiogénèse” value in test [4] (Matrigel with VEGF, C18 :1 25 mg par jour et par souris, vs VEGF group) is given as approximately 40%. For the same compound, the “concentration en hémoglobine dans le Matrigel” value in test [4] (relative to VEGF group (50 ng/mL) fixed at 100%, 10 days after injection, alkylglycérol 18 :1 25 mg par jour et par souris, 6 mice) is on record as 58,56%.

`O=P1(N(CCCl)CCCl)NCCCO1` (stereo not shown) [cyclophosphamide]: in test [3] (setting [6]), the “dissémination métastatique pulmonaire” value is “efficace” and the “progression de la greffe tumorale” value is given as “efficace”.
